Data taken from patent US20200360520A1, “USE OF RIFAMYCIN-QUINOLIZIDONE COUPLING MOLECULE” (priority 2019, published 2020).
Like-named read-outs stand apart in the source and are kept apart here.

How the values were obtained:
Format in all cases: cell-based
Mycobacterium avium [1] = test: MIC by micro broth dilution method (resazurin microtiter assay); settings: read-out: Minimum Inhibitory Concentration (MIC)
Mycobacterium kansasii [2] = test: as above; settings: Mycobacterium kansasii, read-out: Minimum Inhibitory Concentration (MIC)
[3] = system: Mycobacterium intracellulare; test: as above; settings: Mycobacterium intracellulare, MH Culture Medium, read-out: Minimum Inhibitory Concentration (MIC)
[4] = system: Mycobacterium massiliense; test: as above; settings: Mycobacteroides abscessus, MH Culture Medium, read-out: Minimum Inhibitory Concentration (MIC)
Mycobacterium fortuitum = test: as above; settings: Mycolicibacterium fortuitum, MH Culture Medium, read-out: Minimum Inhibitory Concentration (MIC)
Mycodacterium chelonei = test: as above; settings: MH Culture Medium; Chelonei (standard strain); read-out: Minimum Inhibitory Concentration (MIC)
Mycobacterium abscessus [5] = test: as above; settings: Mycobacteroides abscessus, read-out: Minimum Inhibitory Concentration (MIC)
Mycobacterium avium [6] = test: MBC test (plating on agar, CFU count); settings: Mycobacterium avium, read-out: Minimum Bactericidal Concentration (MBC)
Mycobacterium abscessus [7] = test: MBC test (plating on agar, CFU count); settings: for Minimum Bactericidal Concentration (MBC): MH Culture Medium; for MBC: Mycobacteroides abscessus, 7H9 Culture Medium, read-out: Minimum Bactericidal Concentration (MBC)
Mycobacterium kansasii [8] = test: MBC test (plating on agar, CFU count); settings: Mycobacterium kansasii, Mycobacterium kansasii, read-out: Minimum Bactericidal Concentration (MBC)
[9] = MH Culture Medium, Avium (standard strain)
[10] = MH Culture Medium, clinically isolated strain Avium (S31)
[11] = MH Culture Medium, clinically isolated strain Avium (S123)
[12] = MH Culture Medium, clinically isolated strain Avium (S559)
[13] = MH Culture Medium, clinically isolated strain Avium (S568)
[14] = MH Culture Medium, clinically isolated strain Avium (S577)
[15] = MH Culture Medium, clinically isolated strain Avium (S597)
[16] = MH Culture Medium, clinically isolated strain Avium (S602)
[17] = MH Culture Medium, Kansasii (standard strain)
[18] = MH Culture Medium, clinically isolated strain Kansasii (S9)
[19] = MH Culture Medium, clinically isolated strain Kansasii (S199)
[20] = MH Culture Medium, clinically isolated strain Kansasii (S520)
[21] = MH Culture Medium, clinically isolated strain Kansasii (S609)
[22] = Intracellulare (standard strain)
[23] = clinically isolated strain Intracellulare (S90)
[24] = clinically isolated strain Intracellulare (S261)
[25] = clinically isolated strain Intracellulare (S269)
[26] = clinically isolated strain Intracellulare (S290)
[27] = clinically isolated strain Intracellulare (S291)
[28] = clinically isolated strain Intracellulare (S298)
[29] = clinically isolated strain Intracellulare (S541)
[30] = clinically isolated strain Intracellulare (S623)
[31] = clinically isolated strain Intracellulare (ZPS)
[32] = clinically isolated strain intracellulare (S442)
[33] = clinically isolated strain Massiliense (D10)
[34] = clinically isolated strain Massiliense (D14)
[35] = clinically isolated strain Massiliense (D18)
[36] = clinically isolated strain Fortuitum (S103)
[37] = clinically isolated strain Fortuitum (S111)
[38] = 7H9 Broth, Mycobacterium avium Rough
[39] = 7H9 Broth, Mycobacterium avium Smooth
[40] = MH Broth, Mycobacterium avium Rough
[41] = MH Broth, Mycobacterium avium Smooth
[42] = 7H9 Culture Medium, Mycobacterium avium Rough
[43] = 7H9 Culture Medium, Mycobacterium avium Smooth
[44] = MH Culture Medium, Mycobacterium avium Smooth

CO[C@H]1/C=C/O[C@@]2(C)Oc3c(C)c(O)c4c(c3C2=O)C2=NC3(CCN(CC(C)C)CC3)NC2=C(NC(=O)/C(C)=C\C=C\[C@H](C)[C@H](O)[C@@H](C)[C@@H](O)[C@@H](C)[C@H](OC(C)=O)[C@@H]1C)C4=O [Rifabutin, rifabutin]
0.25 µg/mL: MIC [3, 24] | MIC [3, 30]
4 µg/mL: MIC (Mycobacterium fortuitum; Fortuitum (standard strain)) | MIC (Mycobacterium fortuitum; [37])
32 µg/mL: MIC (Mycobacterium fortuitum; [36])
0.0625 µg/mL: MIC (Mycobacterium avium [1]; [9]) | MIC (Mycobacterium avium [1]; [10]) | MIC (Mycobacterium avium [1]; [11]) | MIC (Mycobacterium avium [1]; [12]) | MIC (Mycobacterium avium [1]; [13]) | MIC (Mycobacterium avium [1]; [14]) | MIC (Mycobacterium avium [1]; [15]) | MIC (Mycobacterium avium [1]; [16]) | MIC (Mycobacterium kansasii [2]; [17]) | MIC (Mycobacterium kansasii [2]; [18]) | MIC (Mycobacterium kansasii [2]; [19]) | MIC (Mycobacterium kansasii [2]; [20]) | MIC (Mycobacterium kansasii [2]; [21]) | MIC [3, 22] | MIC [3, 25] | MIC [3, 26] | MIC [3, 27] | MIC [3, 31] | MIC [3, 32]
> 64 µg/mL: MIC [4, 33]
0.5 µg/mL: MIC [3, 28]
0.125 µg/mL: MIC [3, 23] | MIC [3, 29]
64 µg/mL: MIC [4, 34] | MIC [4, 35] | MIC (Mycodacterium chelonei)

NCC[C@H](O)C(=O)N[C@@H]1C[C@H](N)[C@@H](O[C@H]2O[C@H](CN)[C@@H](O)[C@H](O)[C@H]2O)[C@H](O)[C@H]1O[C@H]1O[C@H](CO)[C@@H](O)[C@H](N)[C@H]1O [Amikacin, amikacin]
16 µg/mL: MIC (Mycobacterium abscessus [5]; MH Broth) | MIC (Mycobacterium kansasii [2]; 7H9 Broth)
> 64 µg/mL: MIC (Mycobacterium avium [1]; [38]) | MBC (Mycobacterium avium [6]; [42]) | MBC (Mycobacterium avium [6]; [43]) | MBC (Mycobacterium avium [6]; MH Culture Medium, Mycobacterium avium Rough) | MBC (Mycobacterium avium [6]; [44]) | MBC (Mycobacterium abscessus [7]) | MBC (Mycobacterium kansasii [8]; MH Culture Medium)
64 µg/mL: MBC (Mycobacterium kansasii [8]; 7H9 Culture Medium)
32 µg/mL: MIC (Mycobacterium abscessus [5]; 7H9 Broth)
2 µg/mL: MIC (Mycobacterium avium [1]; [39]) | MIC (Mycobacterium avium [1]; [40]) | MIC (Mycobacterium avium [1]; [41])
1 µg/mL: MIC (Mycobacterium kansasii [2]; MH Broth)
>64 µg/mL: Minimum Bactericidal Concentration (MBC) (Mycobacterium abscessus [7])

CO[C@H]1/C=C/O[C@@]2(C)Oc3c(C)c(O)c4c(O)c(c(/C=N/N5CCN(C)CC5)c(O)c4c3C2=O)NC(=O)/C(C)=C\C=C\[C@H](C)[C@H](O)[C@@H](C)[C@@H](O)[C@@H](C)[C@H](OC(C)=O)[C@@H]1C [Rifampicin, rifampicin]
16 µg/mL: MIC (Mycobacterium kansasii [2]; 7H9 Broth) | MIC (Mycobacterium kansasii [2]; MH Broth) | MIC [3, 24] | MIC [3, 29]
0.25 µg/mL: MIC (Mycobacterium avium [1]; [9]) | MIC [3, 22]
2 µg/mL: MIC (Mycobacterium avium [1]; [16]) | MIC [3, 31] | MIC [3, 32]
>64 µg/mL: Minimum Bactericidal Concentration (MBC) (Mycobacterium abscessus [7])
0.125 µg/mL: MIC (Mycobacterium avium [1]; [12]) | MIC (Mycobacterium avium [1]; [14]) | MIC (Mycobacterium kansasii [2]; [17]) | MIC (Mycobacterium kansasii [2]; [18])
64 µg/mL: MIC (Mycobacterium fortuitum; [37])
4 µg/mL: MIC (Mycobacterium avium [1]; [13]) | MBC (Mycobacterium avium [6]; [43]) | MBC (Mycobacterium avium [6]; [44]) | MBC (Mycobacterium kansasii [8]; 7H9 Culture Medium) | MBC (Mycobacterium kansasii [8]; MH Culture Medium) | MIC [3, 25] | MIC [3, 26] | MIC [3, 27] | MIC [3, 28]
0.5 µg/mL: MIC (Mycobacterium avium [1]; [39])
1 µg/mL: MIC (Mycobacterium avium [1]; [41])
> 64 µg/mL: MIC (Mycobacterium abscessus [5]; 7H9 Broth) | MIC (Mycobacterium abscessus [5]; MH Broth) | MBC (Mycobacterium avium [6]; [42]) | MBC (Mycobacterium abscessus [7]) | MIC [4, 33] | MIC [4, 34] | MIC [4, 35] | MIC (Mycobacterium fortuitum; Fortuitum (standard strain)) | MIC (Mycobacterium fortuitum; [36]) | MIC (Mycodacterium chelonei)
8 µg/mL: MIC (Mycobacterium avium [1]; [38]) | MIC (Mycobacterium avium [1]; [40]) | MIC (Mycobacterium avium [1]; [11]) | MIC (Mycobacterium avium [1]; [15]) | MIC [3, 23] | MIC [3, 30]
0.0625 µg/mL: MIC (Mycobacterium avium [1]; [10]) | MIC (Mycobacterium kansasii [2]; [19]) | MIC (Mycobacterium kansasii [2]; [20]) | MIC (Mycobacterium kansasii [2]; [21])
